Measurements reported in patent US6531496B1 (Bayer Aktiengesellschaft, priority 1999, dated 2003).
In brackets after ≈: the same amount, converted by molar mass. One block for each compound: values may come before it.

Experiments:
[1] = system: Venturia inaequalis; experiment: Venturia test (apple)/protective; type: in vivo; settings: 288 h, protective, evaluated 12 days after inoculation, read-out: Efficacy in %
Protocol: (§1) Venturia Test (Apple)/Protective Solvent: 47 parts by weight of acetone Emulsifier: 3 parts by weight of alkylaryl polyglycol ether To prepare a suitable active compound preparation, 1 part by weight of active compound is mixed with the stated amounts of solvent and emulsifier, and the concentrate is diluted with water to the desired concentration. To test for protective activity, young plants are sprayed with the active compound preparation at the application rate stated. After the spray coating has dried on, the plants are inoculated with an aqueous conidial suspension of the apple scab pathogen Venturia inaequalis and then remain for 1 day in an incubation cabinet at approx. 20° C. and 100% relative atmospheric humidity.

[2] = system: Penicillium brevicaule; experiment: Minimum inhibitory concentration on malt extract agar; type: cell-based; settings: Penicillium, 336 h, 2 weeks at 28° C., read-out: Minimum inhibitory concentrations Penicillium brevicaule
Protocol: To confirm the activity against fungi (Penicillium brevicaule, Chaetomium globosum, Aspergillus Niger), the minimum inhibitory concentrations (MICs) of agents according to the invention are determined:
Active compounds according to the invention are added in concentrations of from 0.1 mg/l to 5 000 mg/l to an agar prepared using malt extract. […] The MIC is the lowest concentration of active compound at which no growth whatsoever by the microbial species used occurs; it is indicated in the table which follows.

[3] = system: Plasmopara viticola; experiment: Plasmopara test (grapevine)/protective; type: in vivo; settings: 144 h, protective, evaluated 6 days after inoculation, read-out: Efficacy in %
Protocol: as §1, with “Plasmopara” for “Venturia”, “(Grapevine)/Protective” for “(Apple)/Protective”, “spore” for “conidial”, “Plasmopara viticola” for “the apple scab pathogen Venturia inaequalis”, “a” for “100%”, “humidity of 100%. […] The plants are then moistened and placed in an incubation cabinet for 1 day.” for “humidity.”

[4] = logP by HPLC (EEC Directive 79/831 Annex V. A8, gradient method); type: physicochemical
[5] = gradient of acetonitrile/0.1% aqueous phosphoric acid, HPLC, gradient method, acetonitrile/0.1% aqueous phosphoric acid, Table 1
[6] = HPLC, gradient method, acetonitrile/0.1% aqueous phosphoric acid, Table 1
[7] = Table 3, intermediates of formula (II-a)
[8] = Table 4, starting materials of formula (IV)

SMILES: Cc1cc(Cl)cc(OC2=NS(=O)(=O)CS2)c1 [Example 1, 3-(3-chloro-5-methylphenoxy)-1λ^6,4,2-dithiazole-1,1(5H)-dione]
pest or weed control at 250 g/ha [1]: ≥ 90% | MIC [2]: 10 to 100 µg/mL (≈ 36 to 360 µM) | pest or weed control at 250 g/ha [3]: ≥ 90%

SMILES: C/C(=N/OC(C)(C)C)c1cccc(OC2=NS(=O)(=O)CS2)c1 [Example 28]
pest or weed control at 250 g/ha [1]: ≥ 90% | chromatographic logP [4, 5]: 3.94 | pest or weed control at 250 g/ha [3]: ≥ 90%

SMILES: CO/N=C(/c1ccccc1)c1cccc(OC2=NS(=O)(=O)CS2)c1 [Example 41]
chromatographic logP [4, 5]: 3.28 | pest or weed control at 250 g/ha [3]: ≥ 90%

SMILES: C=CCO/N=C(/c1ccccc1)c1cccc(OC2=NS(=O)(=O)CS2)c1 [Example 42]
chromatographic logP [4, 5]: 3.72 | pest or weed control at 250 g/ha [3]: ≥ 90%

SMILES: O=S1(=O)CSC(Oc2cccc(CCO)c2)=N1 [Example 90]
logP [4, 6]: 1.39

SMILES: O=S1(=O)CSC(Oc2ccccc2Cl)=N1 [Example 95]
pest or weed control at 250 g/ha [1]: ≥ 90% | pest or weed control at 250 g/ha [3]: ≥ 90%

SMILES: O=S1(=O)CSC(Oc2ccc(Cl)cc2Cl)=N1 [Example 96]
pest or weed control at 250 g/ha [1]: ≥ 90% | pest or weed control at 250 g/ha [3]: ≥ 90%

SMILES: CC(C)(C)c1ccc(OC2=NS(=O)(=O)CS2)cc1 [Example 98]
pest or weed control at 250 g/ha [3]: ≥ 90%

SMILES: O=S1(=O)CSC(Oc2ccc(Cl)cc2Cc2ccccc2)=N1 [Example 99]
pest or weed control at 250 g/ha [3]: ≥ 90%

SMILES: O=S1(=O)CSC(Oc2cccc(Cl)c2Cl)=N1 [Example 101]
pest or weed control at 250 g/ha [1]: ≥ 90% | pest or weed control at 250 g/ha [3]: ≥ 90%

SMILES: O=S1(=O)CSC(Oc2c(Cl)cccc2Cl)=N1 [Example 102]
pest or weed control at 250 g/ha [3]: ≥ 90%

SMILES: Cc1ccc(OC2=NS(=O)(=O)CS2)cc1 [Example 105]
pest or weed control at 250 g/ha [1]: ≥ 90% | pest or weed control at 250 g/ha [3]: ≥ 90%

SMILES: Cc1cccc(OC2=NS(=O)(=O)CS2)c1 [Example 106]
pest or weed control at 250 g/ha [1]: ≥ 90% | pest or weed control at 250 g/ha [3]: ≥ 90%

SMILES: O=S1(=O)CSC(Oc2ccccc2Br)=N1 [Example 108]
pest or weed control at 250 g/ha [1]: ≥ 90% | chromatographic logP [4, 5]: 2.3

SMILES: O=S1(=O)CSC(Oc2ccccc2F)=N1 [Example 110]
pest or weed control at 250 g/ha [1]: ≥ 90% | chromatographic logP [4, 5]: 2.02

SMILES: O=S1(=O)CSC(Oc2cccc(C(F)(F)F)c2)=N1 [Example 113]
logP [4, 6]: 2.62

SMILES: CC(C)(C)c1cccc(OC2=NS(=O)(=O)CS2)c1 [Example 114]
pest or weed control at 250 g/ha [1]: ≥ 90% | chromatographic logP [4, 5]: 3.27

SMILES: COc1cccc(OC2=NS(=O)(=O)CS2)c1OC [Example 118]
logP [4, 6]: 2.12

SMILES: Cc1cccc(C)c1OC1=NS(=O)(=O)CS1 [Example 123]
logP [4, 6]: 2.57

SMILES: Cc1ccc(C)c(OC2=NS(=O)(=O)CS2)c1 [Example 125]
logP [4, 6]: 2.63

SMILES: CC(C)Oc1ccccc1OC1=NS(=O)(=O)CS1 [Example 129]
logP [4, 6]: 2.7

SMILES: O=C(C=Cc1ccccc1)c1ccccc1OC1=NS(=O)(=O)CS1 [Example 130]
logP [4, 6]: 2.91

SMILES: O=S1(=O)CSC(Oc2ccccc2C(F)(F)F)=N1 [Example 131]
logP [4, 6]: 2.49

SMILES: O=S1(=O)CSC(Oc2ccccc2OC(F)(F)F)=N1 [Example 133]
pest or weed control at 250 g/ha [1]: ≥ 90% | chromatographic logP [4, 5]: 2.63

SMILES: O=S1(=O)CSC(Oc2cccc(OC(F)(F)F)c2)=N1 [Example 134]
logP [4, 6]: 2.35

SMILES: COc1ccccc1OC1=NS(=O)(=O)CS1 [Example 136]
logP [4, 6]: 2.02

SMILES: O=S1(=O)CSC(Oc2ccc3c(c2)OCO3)=N1 [Example 142]
chromatographic logP ([4]; Table 2): 1.9

SMILES: Cc1c(C(=O)O)c2cc(OC3=NS(=O)(=O)CS3)ccc2n1C [Example 144]
chromatographic logP ([4]; Table 2): 2.65

SMILES: COC(=O)c1c(-c2ccc(-c3ccccc3)cc2)oc2ccc(OC3=NS(=O)(=O)CS3)cc12 [Example 146]
chromatographic logP ([4]; Table 2): 3.43

SMILES: CN1C(=O)Nc2cc(OC3=NS(=O)(=O)CS3)ccc2SC1=O [Example 149]
chromatographic logP ([4]; Table 2): 1.55

SMILES: CC1(C)Oc2cccc(OC3=NS(=O)(=O)CS3)c2O1 [Example 150]
chromatographic logP ([4]; Table 2): 2.6

SMILES: COC(=O)/C(C#N)=C1/Oc2ccc(OC3=NS(=O)(=O)CS3)cc2S1 [Example 151]
chromatographic logP ([4]; Table 2): 2.31

SMILES: O=S1(=O)CSC(Oc2ccc3c(c2)CCC3)=N1 [Example 157]
chromatographic logP ([4]; Table 2): 2.8

SMILES: CC1(C)Cc2cccc(OC3=NS(=O)(=O)CS3)c2O1 [Example 158]
chromatographic logP ([4]; Table 2): 2.66

SMILES: O=S1(=O)CC(c2ccccc2)SC(Cl)=N1 (stereo not drawn) [II-a-1]
chromatographic logP [4, 7]: 2.63

SMILES: CC1(c2ccccc2)CS(=O)(=O)N=C(Cl)S1 (stereo not drawn) [II-a-2]
chromatographic logP [4, 7]: 2.75

SMILES: CSC1=NS(=O)(=O)C(C)S1 (stereo not drawn) [IV-3]
chromatographic logP [4, 8]: 1.38

SMILES: CSC1=NS(=O)(=O)C(C(C)C)S1 (stereo not drawn) [IV-4]
chromatographic logP [4, 8]: 2.8

SMILES: CSC1=NS(=O)(=O)CC(C)(c2ccccc2)S1 (stereo not drawn) [IV-5]
chromatographic logP [4, 8]: 2.65

SMILES: CSC1=NS(=O)(=O)CC(c2ccccc2)S1 (stereo not drawn) [IV-6]
chromatographic logP [4, 8]: 2.54

More lines, main results first:

chromatographic logP [4, 5]: 1.69
SMILES: CC(=O)c1ccc(OC2=NS(=O)(=O)CS2)cc1 [Example 21]
pest or weed control at 250 g/ha [3]: ≥ 90%

chromatographic logP [4, 5]: 3.98
SMILES: C/C(=N/OC(C)(C)C)c1ccc(OC2=NS(=O)(=O)CS2)cc1 [Example 24]
pest or weed control at 250 g/ha [1]: ≥ 90%

chromatographic logP [4, 5]: 2.66
SMILES: O=C(c1ccccc1)c1cccc(OC2=NS(=O)(=O)CS2)c1 [Example 27]
pest or weed control at 250 g/ha [1]: ≥ 90% | pest or weed control at 250 g/ha [3]: ≥ 90%

logP [4, 6]: 3.17
SMILES: O=C(c1ccc(Cl)cc1)c1ccc(OC2=NS(=O)(=O)CS2)cc1 [Example 86]

logP [4, 6]: 1.88
SMILES: O=S1(=O)CSC(Oc2ccc(OC3=NS(=O)(=O)CS3)cc2)=N1 [Example 88]

logP [4, 6]: 1.37
SMILES: O=S1(=O)CSC(Oc2cccc(OCCO)c2)=N1 [Example 91]

logP [4, 6]: 1.69
SMILES: N#Cc1cccc(OC2=NS(=O)(=O)CS2)c1 [Example 109]

chromatographic logP [4, 5]: 2.05
SMILES: O=S1(=O)CSC(Oc2cccc(F)c2)=N1 [Example 111]
pest or weed control at 250 g/ha [1]: ≥ 90%

logP [4, 6]: 2.04
SMILES: O=S1(=O)CSC(Oc2ccc(F)cc2)=N1 [Example 112]

chromatographic logP [4, 5]: 2.62
SMILES: Cc1ccc(Cl)c(OC2=NS(=O)(=O)CS2)c1 [Example 115]
pest or weed control at 250 g/ha [1]: ≥ 90%

logP [4, 6]: 2.61
SMILES: COc1cc(Cl)cc(OC2=NS(=O)(=O)CS2)c1 [Example 116]

logP [4, 6]: 1.82
SMILES: COc1ccc(OC2=NS(=O)(=O)CS2)cc1OC [Example 117]

chromatographic logP [4, 5]: 2.47
SMILES: O=S1(=O)CSC(Oc2cccc(Br)c2)=N1 [Example 119]
pest or weed control at 250 g/ha [3]: ≥ 90%

logP [4, 6]: 2.83
SMILES: Cc1cc(S(=O)(=O)c2ccccc2)cc(Cl)c1OC1=NS(=O)(=O)CS1 [Example 120]

logP [4, 6]: 3.28
SMILES: O=[N+]([O-])c1ccc(Sc2ccc(OC3=NS(=O)(=O)CS3)cc2)cc1 [Example 121]

logP [4, 6]: 2.52
SMILES: O=S1(=O)CSC(Oc2ccc(Br)cc2)=N1 [Example 122]

logP [4, 6]: 2.79
SMILES: O=S1(=O)CSC(Oc2ccc(OC(F)(F)F)cc2)=N1 [Example 124]

logP [4, 6]: 3.33
SMILES: O=[N+]([O-])c1ccc(Oc2ccc(OC3=NS(=O)(=O)CS3)cc2)c(Cl)c1 [Example 126]

chromatographic logP [4, 5]: 2.65
SMILES: Cc1ccc(OC2=NS(=O)(=O)CS2)c(C)c1 [Example 127]

chromatographic logP [4, 5]: 1.84
SMILES: O=[N+]([O-])c1ccccc1OC1=NS(=O)(=O)CS1 [Example 128]
pest or weed control at 250 g/ha [3]: ≥ 90%

logP [4, 6]: 2.64
SMILES: O=S1(=O)CSC(Oc2ccc(C(F)(F)F)cc2)=N1 [Example 132]

logP [4, 6]: 3.07
SMILES: O=S1(=O)CSC(Oc2ccc(SC(F)(F)F)cc2)=N1 [Example 135]

logP [4, 6]: 0.83
SMILES: Cc1cc(OC2=NS(=O)(=O)CS2)ccc1N [Example 137]

chromatographic logP ([4]; Table 2): 2.64
SMILES: O=S1(=O)CSC(Oc2ccc3oc(=S)sc3c2)=N1 [Example 141]
pest or weed control at 250 g/ha [1]: ≥ 90% | pest or weed control at 250 g/ha [3]: ≥ 90%

chromatographic logP ([4]; Table 2): 0.48
SMILES: O=C1Cc2cc(OC3=NS(=O)(=O)CS3)ccc2O1 [Example 143]

chromatographic logP ([4]; Table 2): 2.77
SMILES: O=c1oc2cc(OC3=NS(=O)(=O)CS3)ccc2cc1-c1ccccc1 [Example 147]

chromatographic logP ([4]; Table 2): 1.92
SMILES: Cc1nc2cc(OC3=NS(=O)(=O)CS3)ccc2s1 [Example 148]

chromatographic logP ([4]; Table 2): 2.52
SMILES: O=c1c2ccccc2oc2cc(OC3=NS(=O)(=O)CS3)ccc12 [Example 152]

chromatographic logP ([4]; Table 2): 3.31
SMILES: O=S1(=O)CSC(Oc2cccc3sc4ccccc4c23)=N1 [Example 153]

chromatographic logP ([4]; Table 2): 1.93
SMILES: O=S1(=O)CSC(Oc2ccc3c(c2)Nc2ccccc2S3(=O)=O)=N1 [Example 154]

chromatographic logP ([4]; Table 2): 1.86
SMILES: O=S1(=O)CSC(Oc2ccc3[nH]ccc3c2)=N1 [Example 155]
